According to patent US20220380341A1, “INHIBITORS OF HIV-1 NEF FOR THE TREATMENT OF HIV DISEASE” (priority 2018, published 2022):
Read-outs that look alike come from different tables or passages of the source.

How the values were obtained:
[1] = system: HIV-1NL4-3; test: HIV-1 infectivity assay in TZM-bl reporter cell line (LTR-luciferase, 48 h); format: cell-based; conditions: Human immunodeficiency virus 1, TZM-bl
How it was run: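 Nef-dependent infectivity in TZM-bl cells: HIV-1NL4-3 infection with 1 μM compound, luciferase read at 48 h, normalized against DMSO wild-type and Nef-defective controls. Compound cytotoxicity in uninfected cells measured by Cell Titer Blue.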

[2] = system: TZM-bl cell line; format: cell-based; conditions: human, 1 μM
How it was run: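 Read-out is luciferase from an integrated HIV-1 LTR reporter in TZM-bl cells, 48 h after HIV-1NL4-3 infection in the presence of 1 μM compound. Scale set by DMSO-treated wild-type-infected cells (0%) and Nef-defective virus (100% Nef-dependent effect). Cell Titer Blue measures cytotoxicity without virus.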

[3] = molecular target: HIV-1 NefNL4-3 (Human immunodeficiency virus type 1 group M subtype B, UniProt P03406, A33V/T15A/T51N/V11I); test: Surface plasmon resonance binding to recombinant full-length Nef (NL4-3); conditions: for RU30/RUNef (extent of binding): response units at 30 μM relative to Nef immobilized on the SPR chip; for Nef NL4-3 Binding, SPR 1:1 or 2-site fitting KD1: 1:1 Langmuir fit where the KD2 cell says '1 to 1 fitting', else 2-site fit
[4] = 48 h, Table 1, TZM-bl cells, 1 μM, 48 h, 100% = Nef-defective HIV-1, read-out: HIV-1 Infectivity % Inhibition Norm. to Δ-Nef @ 1 μM
[5] = 1.0 μM, TZM-bl reporter cell line, Table 4, read-out: % Infectivity Inhibition
[6] = KD, M, Table 4, SPR fit 1:1 Langmuir, KD = koff/kon
[7] = Table 4, 1:1 Langmuir fit, T = 1/koff
[8] = KD, M, Table 4, SPR fit 2-step induced fit, KD = koff/kon × koff2/(koff2 + kon2)
[9] = Table 4, 2-step induced fit, T = 1/koff2
[10] = read-out: Nef NL4-3 Binding, SPR 1:1 or 2-site fitting KD2, Table 1, 2-site fit, second component
[11] = Nef NL4-3 Binding, SPR 2-state fitting KD, Table 1, 2-step induced-fit model

Structure (SMILES) | inhibition at 1 µM [1, 4] [%] | Percent Viability @ 1 μM (TZM-bl cells) [2] [%] | Kd [3] [nM] | inhibition at 1 µM [1, 5] [%] | % Cell Viability [2] [%] | Kd [3, 6] [nM] | T, minutes (residence time) [3, 7] | RU30/RUNef (extent of binding) [3] | Nef NL4-3 Binding, SPR 1:1 or 2-site fitting KD1 ([3]; Table 1) | Kd [3, 8] [nM] | T, minutes (residence time) [3, 9] | Kd [3, 10] [nM] | Kd [3, 11] [nM]
O=C1CN(Cc2nn(-c3nc4ccccc4[nH]3)c(O)c2CCc2ccc(F)cc2)CCN1c1ccccc1 [Compound I-155, 4-{[1-(1H-1,3-benzodiazol-2-yl)-4-[2-(4-fluorophenyl)ethyl]-5-hydroxy-1H-pyrazol-3-yl]methyl}-1-phenylpiperazin-2-one] | -5.9 | 98.2 | 3400 | – | – | – | – | – | – | – | – | – | –
Cc1nn(-c2nc3ccccc3[nH]2)c(O)c1Cc1ccc(Cl)cc1F [Compound I-156, 1-(1H-1,3-benzodiazol-2-yl)-4-[(4-chloro-2-fluorophenyl)methyl]-3-methyl-1H-pyrazol-5-ol] | 15.4 | 101.5 | 8.56 | 15.4 | 100 | 8.56 | 7.34E + 02 minutes | 3.62E- 03 | – | – | – | – | –
Oc1c(CCc2ccc(F)cc2)c(CN2CCOCC2)nn1-c1nc2ccccc2[nH]1 [Compound I-157, 1-(1H-1,3-benzodiazol-2-yl)-4-[2-(4-fluorophenyl)ethyl]-3-[(morpholin-4-yl)methyl]-1H-pyrazol-5-ol] | 13.2 | 100.7 | 7800 | – | – | – | – | – | – | – | – | – | –
O=C(OCc1ccccc1)N1CCC(c2nn(-c3nc4ccccc4[nH]3)c(O)c2CCc2ccc(F)cc2)CC1 [Compound I-158, benzyl 4-[1-(1H-1,3-benzodiazol-2-yl)-4-[2-(4-fluorophenyl)ethyl]-5-hydroxy-1H-pyrazol-3-yl]piperidine-1-carboxylate] | 101 | 92.0 | – | – | – | – | – | – | No Interaction | – | – | – | –
O=C(OCc1ccccc1)N1CCCC(c2nn(-c3nc4ccccc4[nH]3)c(O)c2CCc2ccc(F)cc2)C1 (stereo not shown) [Compound I-160, benzyl 3-[1-(1H-1,3-benzodiazol-2-yl)-4-[2-(4-fluorophenyl)ethyl]-5-hydroxy-1H-pyrazol-3-yl]piperidine-1-carboxylate] | 33.4 | 93.7 | 0.0063 | 33.4 | 93.7 | – | – | 1.74E- 02 | – | 0.00238 | 7.41E + 06 minutes | 2620 | –
Cc1ccn(CCc2c(-c3ccc(C(F)(F)F)cc3)nn(-c3nc4ccc(Cl)cc4[nH]3)c2O)n1 [Compound I-163, 1-(6-chloro-1H-1,3-benzodiazol-2-yl)-4-[2-(3-methyl-1H-pyrazol-1-yl)ethyl]-3-[4-(trifluoromethyl)phenyl]-1H-pyrazol-5-ol] | 0.3 | 96.6 | 1010 | 0.3 | 96.6 | – | – | 4.48E- 03 | – | 5820 | 1.44E + 01 minutes | – | 5820
O=C(OCc1ccccc1)N1CCC(c2c(-c3ccc(C(F)(F)F)cc3)nn(-c3nc4ccccc4[nH]3)c2O)CC1 [Compound I-164, benzyl 4-[1-(1H-1,3-benzodiazol-2-yl)-5-hydroxy-3-[4-(trifluoromethyl)phenyl]-1H-pyrazol-4-yl]piperidine-1-carboxylate] | 64.9 | 93.6 | – | – | – | – | – | – | No Interaction | – | – | – | –
Oc1c(CCc2ccc(F)cc2)c(-c2ccccc2)nn1-c1nc2cc(Cl)ccc2[nH]1 [Compound I-165, 1-(5-chloro-1H-1,3-benzodiazol-2-yl)-4-[2-(4-fluorophenyl)ethyl]-3-phenyl-1H-pyrazol-5-ol] | 25.3 | 89.6 | 689 | 25.3 | 89.6 | – | – | 4.14E- 02 | – | 636 | 5.10E + 00 minutes | – | 636
CS(=O)(=O)c1ccc(-c2nn(-c3nc4cc(Cl)ccc4[nH]3)c(O)c2CCC2CCOCC2)cc1 [Compound I-168, 1-(5-chloro-1H-1,3-benzodiazol-2-yl)-3-(4-methanesulfonylphenyl)-4-[2-(oxan-4-yl)ethyl]-1H-pyrazol-5-ol] | 19.2 | 97.9 | 751 | 19.2 | 97.9 | – | – | 6.97E- 03 | – | 2730 | 4.96E + 00 minutes | 4970 | 2730
CS(=O)(=O)c1ccc(-c2nn(-c3nc4cc(F)ccc4[nH]3)c(O)c2CCC2CCOCC2)cc1 [Compound I-169, 1-(5-fluoro-1H-1,3-benzodiazol-2-yl)-3-(4-methanesulfonylphenyl)-4-[2-(oxan-4-yl)ethyl]-1H-pyrazol-5-ol] | -4.8 | 98.7 | 465 | – | – | – | – | – | – | – | – | 1810 | 7400
COC(=O)c1ccc(CCc2c(-c3ccccc3)nn(-c3nc4cc(Cl)ccc4[nH]3)c2O)cc1 [Compound I-171, methyl 4-{2-[1-(5-chloro-1H-1,3-benzodiazol-2-yl)-5-hydroxy-3-phenyl-1H-pyrazol-4-yl]ethyl}benzoate] | 131 | 75.8 | 892 | 100 | 75.8 | – | – | 2.77E- 02 | – | 13.3 | 7.82E + 02 minutes | – | 13.3
Oc1c(CCc2ccc(F)cc2)c(-c2ccc(F)cc2)nn1-c1nc2cc(Cl)ccc2[nH]1 [Compound I-172, 1-(5-chloro-1H-1,3-benzodiazol-2-yl)-3-(4-fluoropheny1)-4-[2-(4-fluorophenyl)ethyl]-1H-pyrazol-5-ol] | 56 | 96.5 | 250 | 56 | 96.5 | – | – | 4.28E- 02 | – | 69.3 | 1.73E + 01 minutes | – | 69.3
Oc1c(CC2CCOCC2)c(-c2ccc(F)cc2)nn1-c1nc2cc(F)ccc2[nH]1 [Compound I-173, 1-(5-fluoro-1H-1,3-benzodiazol-2-yl)-3-(4-fluorophenyl)-4-[(oxan-4-yl)methyl]-1H-pyrazol-5-ol] | – | – | – | 97.2 | 85.7 | – | – | 5.24E- 03 | – | 0.348 | 7.12E + 04 minutes | – | –
Oc1c(CC2CCOCC2)c(C2CC2)nn1-c1nc2ccccc2[nH]1 [Compound I-174, 1-(1H-1,3-benzodiazol-2-yl)-3-cyclopropyl-4-[(oxan-4-yl)methyl]-1H-pyrazol-5-ol] | 11.9 | 101.5 | 1370 | 11.9 | 100 | 1370 | 6.54E + 00 minutes | 3.94E- 03 | – | – | – | – | –
Oc1c(CC2CCCOC2)c(-c2ccc(F)cc2)nn1-c1nc2ccccc2[nH]1 (stereo not shown) [Compound I-175, 1-(1H-1,3-benzodiazol-2-yl)-3-(4-fluorophenyl)-4-[(oxan-3-yl)methyl]-1H-pyrazol-5-ol] | – | – | – | 67.2 | 88.8 | 605 | 7.72E + 00 minutes | 6.67E- 04 | – | – | – | – | –
Oc1c(CC2CCOCC2)c(C2CC(F)(F)C2)nn1-c1nc2ccccc2[nH]1 [Compound I-176, 1-(1H-1,3-benzodiazol-2-yl)-3-(3,3-difluorocyclobutyl)-4-[(oxan-4-yl)methyl]-1H-pyrazol-5-ol] | – | – | – | 0 | 98.4 | 2240 | 5.08E + 00 minutes | 1.52E- 03 | – | – | – | – | –
Oc1c(CC2CCOCC2)c(CCC2CCOCC2)nn1-c1nc2ccccc2[nH]1 [Compound I-178, 1-(1H-1,3-benzodiazol-2-yl)-3-[2-(oxan-4-yl)ethyl]-4-[(oxan-4-yl)methyl]-1H-pyrazol-5-ol] | – | – | – | 0 | 97.9 | – | – | 8.86E- 03 | – | 10900 | 7.72E + 00 minutes | – | –
CC(C)(C)c1nn(-c2nc3ccccc3[nH]2)c(O)c1CC1CCOCC1 [Compound I-180, 1-(1H-1,3-benzodiazol-2-yl)-3-tert-butyl-4-[(oxan-4-yl)methyl]-1H-pyrazol-5-ol] | – | – | – | 74.8 | 100 | 7190 | 2.48E + 00 minutes | 2.62E- 03 | – | – | – | – | –
Oc1c(CCC2CCOCC2)c(-c2ccc(F)cc2)nn1-c1nc2ccccc2[nH]1 [Compound I-182, 1-(1H-1,3-benzodiazol-2-yl)-3-(4-fluorophenyl)-4-[2-(oxan-4-yl)ethyl]-1H-pyrazol-5-ol] | – | – | – | 100 | 90 | – | – | 1.11E- 02 | – | 4420 | 9.98E + 00 minutes | – | –
